Key:
Water solubility = type: physicochemical
Description: Bortezomib (a boronic acid compound), in its solid state as a pure API existed in the form of highly water insoluble boroxine, a cyclic boronic acid anhydride. When placed in water, the boroxine dissociated to form equilibrium between itself and the monomeric bortezomib resulting in an apparent water solubility of about 0.5-1 mg/ml which was not sufficient for formulation purposes. In order to deal with such issues, the innovator company in their patent WO2002059130 application has described a stable formulation containing mannitol ester of bortezomib. The application '9130 also relates to a process of preparing such formulation by first dissolving the bortezomib in warm (temperature around 45±2° C.) TBA (tertiary butyl alcohol), then adding water and mannitol (1% bulking agent), followed by freeze drying. […] So, the FDA approved drug Bortezomib is now available as a mannitol boronic ester which in its reconstituted form consists of the mannitol ester in equilibrium with its hydrolysis product, the monomeric boronic acid. The drug substance exists in its cyclic anhydride from as a trimeric boroxine, as described below in FIG. 1.

[1] = boroxine placed in water, equilibrium with monomeric bortezomib; cited from earlier work

**Q.** With `CC(C)C[C@H](NC(=O)[C@H](Cc1ccccc1)NC(=O)c1cnccn1)B1OC(C(O)CO)C(C(O)CO)O1` (stereo in doubt) [Compound B, bortezomib-mannitol ester] as the compound, how does the “water solubility (soluble in volumes of water)” value (Water solubility) read?
**A.** Its value is “around 5 volumes water”.

**Q.** With `CC(C)C[C@H](NC(=O)[C@H](Cc1ccccc1)NC(=O)c1cnccn1)B(O)O` [Bortezomib, [(1R)-3-methyl-1-[[(2S)-1-oxo-3-phenyl-2-[(pyrazinylcarbonyl)amino]propyl]amino]butyl] boronic acid] as the compound, how does the “water solubility (in words)” value (Water solubility) read?
**A.** The value was “poorly water soluble”.

**Q.** What about the apparent water solubility [1] of the same compound?
**A.** The apparent water solubility was 0.5 to 1 mg/mL.
